ChEMBL document CHEMBL1201862, “PubChem BioAssay data set” (2004)
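1) Cells in 96-well plates. 2) Compound, 48 h, 5 concentrations. 3) Linear interpolation between surrounding doses. 4) Unreached endpoint = highest concentration. Here, GI50 denotes the concentration required for 50% inhibition of growth.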 The source made the active and inactive calls. Rule as the data show it: active = GI50 up to about 1.1 µM and inactive = higher.

Tests used:
Test in all cases: NCI tumour cell line growth inhibition, 48 h
786-0 = test system: 786-0
A498 = test system: A498
ACHN = test system: ACHN
CAKI-1 = test system: CAKI-1
CCRF-CEM = test system: CCRF-CEM
DU-145 = test system: DU-145
EKVX = test system: EKVX
HCC 2998 = test system: HCC 2998
HCT-116 = test system: HCT-116
HCT-15 = test system: HCT-15
HL-60 = test system: HL-60
HOP-62 = test system: HOP-62
HOP-92 = test system: HOP-92
HT-29 = test system: HT-29
Hs-578T = test system: Hs-578T
IGROV-1 = test system: IGROV-1
K562 = test system: K562
KM12 = test system: KM12
LOX IMVI = test system: LOX IMVI
M14 = test system: M14
MCF7 = test system: MCF7
MDA-MB-231 = test system: MDA-MB-231
MDA-MB-435 = test system: MDA-MB-435
MDA-N = test system: MDA-N
MOLT-4 = test system: MOLT-4
NCI-H226 = test system: NCI-H226
NCI-H23 = test system: NCI-H23
NCI-H460 = test system: NCI-H460
NCI-H522 = test system: NCI-H522
NCI/ADR-RES = test system: NCI/ADR-RES
OVCAR-3 = test system: OVCAR-3
OVCAR-4 = test system: OVCAR-4
OVCAR-5 = test system: OVCAR-5
OVCAR-8 = test system: OVCAR-8
PC-3 = test system: PC-3
RPMI-8226 = test system: RPMI-8226
RXF 393 = test system: RXF 393
SF-268 = test system: SF-268
SF-295 = test system: SF-295
SF-539 = test system: SF-539
SK-MEL-28 = test system: SK-MEL-28
SK-MEL-2 = test system: SK-MEL-2
SK-MEL-5 = test system: SK-MEL-5
SK-OV-3 = test system: SK-OV-3
SR = test system: SR
SW-620 = test system: SW-620
T47D = test system: T47D
TK-10 = test system: TK-10
U-251 = test system: U-251
UACC-257 = test system: UACC-257
UO-31 = test system: UO-31
A549 = test system: A549
BT-549 = test system: BT-549
COLO 205 = test system: COLO 205
Malme-3M = test system: Malme-3M
SN12C = test system: SN12C
SNB-19 = test system: SNB-19
SNB-75 = test system: SNB-75
UACC-62 = test system: UACC-62

Cc1cc(OCc2nnc3n2N=C(c2cc(F)c(Cl)cc2Cl)/C(=C/c2ccc(Cl)cc2)S3)ccc1Cl
GI50 (786-0): 28.1 µM (inactive) | GI50 (A498): 24.2 µM (inactive) | GI50 (ACHN): 33.5 µM (inactive) | GI50 (CAKI-1): 18.6 µM (inactive) | GI50 (CCRF-CEM): 2.95 µM (inactive) | GI50 (DU-145): 17.4 µM (inactive) | GI50 (EKVX): 39.4 µM (inactive) | GI50 (HCC 2998): 19.6 µM (inactive) | GI50 (HCT-116): 12.8 µM (inactive) | GI50 (HCT-15): 19.7 µM | GI50 (HL-60): 1.91 µM (inactive) | GI50 (HOP-62): 43.1 µM (inactive) | GI50 (HOP-92): 18.1 µM (inactive) | GI50 (HT-29): 16.7 µM (inactive) | GI50 (Hs-578T): 15.2 µM (inactive) | GI50 (IGROV-1): 20.9 µM (inactive) | GI50 (K562): 8.38 µM (inactive) | GI50 (KM12): 22.9 µM (inactive) | GI50 (LOX IMVI): 21.9 µM (inactive) | GI50 (M14): 25 µM (inactive) | GI50 (MCF7): 23.3 µM (inactive) | GI50 (MDA-MB-231): 29.7 µM (inactive) | GI50 (MDA-MB-435): 24.2 µM (inactive) | GI50 (MDA-N): 32.4 µM (inactive) | GI50 (MOLT-4): 0.337 µM (active) | GI50 (NCI-H226): 46 µM (inactive) | GI50 (NCI-H23): 27.4 µM (inactive) | GI50 (NCI-H460): 25.9 µM (inactive) | GI50 (NCI-H522): 14.7 µM (inactive) | GI50 (NCI/ADR-RES): 33.2 µM (inactive) | GI50 (OVCAR-3): 30.5 µM (inactive) | GI50 (OVCAR-4): 19.5 µM (inactive) | GI50 (OVCAR-5): 24.1 µM (inactive) | GI50 (OVCAR-8): 18.8 µM (inactive) | GI50 (PC-3): 21.4 µM (inactive) | GI50 (RPMI-8226): 11.7 µM (inactive) | GI50 (RXF 393): 17 µM (inactive) | GI50 (SF-268): 22.8 µM (inactive) | GI50 (SF-295): 29.9 µM (inactive) | GI50 (SF-539): 44.9 µM (inactive) | GI50 (SK-MEL-28): 19.8 µM (inactive) | GI50 (SK-MEL-2): 29 µM (inactive) | GI50 (SK-MEL-5): 17.9 µM (inactive) | GI50 (SK-OV-3): 50.9 µM (inactive) | GI50 (SR): 7.96 µM (inactive) | GI50 (SW-620): 17.4 µM (inactive) | GI50 (T47D): 20.4 µM (inactive) | GI50 (TK-10): 32.6 µM (inactive) | GI50 (U-251): 18.3 µM (inactive) | GI50 (UACC-257): 38.5 µM (inactive) | GI50 (UO-31): 27.5 µM (inactive)

Cc1ccnc(Nc2[nH]c(C(=O)c3ccc(Cl)cc3)c(N)c2C(=S)Nc2ccccc2)c1
GI50 (786-0): 19.1 µM (inactive) | GI50 (A498): 19.1 µM (inactive) | GI50 (A549): 16 µM (inactive) | GI50 (ACHN): 21.7 µM (inactive) | GI50 (BT-549): 14.2 µM (inactive) | GI50 (CAKI-1): 27.9 µM (inactive) | GI50 (CCRF-CEM): 25.8 µM (inactive) | GI50 (COLO 205): 16 µM (inactive) | GI50 (DU-145): 22.1 µM (inactive) | GI50 (EKVX): 14.5 µM (inactive) | GI50 (HCC 2998): 14.7 µM (inactive) | GI50 (HCT-116): 14.2 µM (inactive) | GI50 (HCT-15): 16.1 µM | GI50 (HL-60): 23.8 µM (inactive) | GI50 (HOP-62): 20.5 µM (inactive) | GI50 (HOP-92): 17.2 µM (inactive) | GI50 (HT-29): 14.9 µM (inactive) | GI50 (IGROV-1): 9.02 µM (inactive) | GI50 (K562): 18.3 µM (inactive) | GI50 (KM12): 10 µM (inactive) | GI50 (LOX IMVI): 14.8 µM (inactive) | GI50 (M14): 16.4 µM (inactive) | GI50 (MCF7): 9.16 µM (inactive) | GI50 (MDA-MB-231): 16.6 µM (inactive) | GI50 (MDA-MB-435): 15.7 µM (inactive) | GI50 (MDA-N): 15.2 µM (inactive) | GI50 (MOLT-4): 10.9 µM (inactive) | GI50 (Malme-3M): 13.8 µM (inactive) | GI50 (NCI-H226): 17.7 µM (inactive) | GI50 (NCI-H23): 19.3 µM (inactive) | GI50 (NCI-H460): 5.82 µM (inactive) | GI50 (NCI-H522): 12.8 µM (inactive) | GI50 (NCI/ADR-RES): 2.57 µM (inactive) | GI50 (OVCAR-3): 25.8 µM (inactive) | GI50 (OVCAR-4): 6.01 µM (inactive) | GI50 (OVCAR-5): 21.2 µM (inactive) | GI50 (OVCAR-8): 12.2 µM (inactive) | GI50 (PC-3): 20.8 µM (inactive) | GI50 (RPMI-8226): 11 µM (inactive) | GI50 (RXF 393): 15.9 µM (inactive) | GI50 (SF-268): 21.1 µM (inactive) | GI50 (SF-295): 14.5 µM (inactive) | GI50 (SF-539): 12.7 µM (inactive) | GI50 (SK-MEL-28): 18.6 µM (inactive) | GI50 (SK-MEL-2): 8.59 µM (inactive) | GI50 (SK-OV-3): 13.8 µM (inactive) | GI50 (SN12C): 15.7 µM (inactive) | GI50 (SNB-19): 23.4 µM (inactive) | GI50 (SNB-75): 18.1 µM (inactive) | GI50 (SR): 12.6 µM (inactive) | GI50 (SW-620): 25.9 µM (inactive) | GI50 (T47D): 19.7 µM (inactive) | GI50 (TK-10): 17.2 µM (inactive) | GI50 (U-251): 15.1 µM (inactive) | GI50 (UACC-257): 15.6 µM (inactive) | GI50 (UACC-62): 10.6 µM (inactive) | GI50 (UO-31): 18 µM (inactive)
